Results from BindingDB's records for doi:10.1074/jbc.M606873200 (Parke-Davis Pharmaceutical Research, 1997).

Experiments:
Experiment in all cases: Kinase Inhibition Assay
[1] = target: Cyclin-dependent kinase 4 (Homo sapiens, UniProt P11802)
Experimental: (§1) The kinase activity is the enzyme activity that catalyzes the transfer of the terminal phosphate from [gamma-32P] ATP to the poly (E: Y) substrate. Nonspecific activity was defined as radioactivity retained on the filters following incubation of samples without enzyme. Specific activity was determined as total activity minus nonspecific activity.

[2] = target: Mitogen-activated protein kinase 1/3 (Homo sapiens, UniProt P27361+P28482)
Experimental: as §1

[3] = target: Platelet-derived growth factor receptor alpha/beta (Homo sapiens, UniProt P09619+P16234)
Experimental: as §1

[4] = target: Platelet-derived growth factor receptor beta (Homo sapiens, UniProt P09619)
Experimental: as §1

[5] = target: Fibroblast growth factor receptor 1 (Homo sapiens, UniProt P11362)
Experimental: as §1

[6] = target: Proto-oncogene tyrosine-protein kinase Src (Homo sapiens, UniProt P12931)
Experimental: as §1

[7] = target: Protein kinase C (PKC)
Experimental: as §1

Chain of Fibroblast growth factor receptor 1 (P11362 whole entry): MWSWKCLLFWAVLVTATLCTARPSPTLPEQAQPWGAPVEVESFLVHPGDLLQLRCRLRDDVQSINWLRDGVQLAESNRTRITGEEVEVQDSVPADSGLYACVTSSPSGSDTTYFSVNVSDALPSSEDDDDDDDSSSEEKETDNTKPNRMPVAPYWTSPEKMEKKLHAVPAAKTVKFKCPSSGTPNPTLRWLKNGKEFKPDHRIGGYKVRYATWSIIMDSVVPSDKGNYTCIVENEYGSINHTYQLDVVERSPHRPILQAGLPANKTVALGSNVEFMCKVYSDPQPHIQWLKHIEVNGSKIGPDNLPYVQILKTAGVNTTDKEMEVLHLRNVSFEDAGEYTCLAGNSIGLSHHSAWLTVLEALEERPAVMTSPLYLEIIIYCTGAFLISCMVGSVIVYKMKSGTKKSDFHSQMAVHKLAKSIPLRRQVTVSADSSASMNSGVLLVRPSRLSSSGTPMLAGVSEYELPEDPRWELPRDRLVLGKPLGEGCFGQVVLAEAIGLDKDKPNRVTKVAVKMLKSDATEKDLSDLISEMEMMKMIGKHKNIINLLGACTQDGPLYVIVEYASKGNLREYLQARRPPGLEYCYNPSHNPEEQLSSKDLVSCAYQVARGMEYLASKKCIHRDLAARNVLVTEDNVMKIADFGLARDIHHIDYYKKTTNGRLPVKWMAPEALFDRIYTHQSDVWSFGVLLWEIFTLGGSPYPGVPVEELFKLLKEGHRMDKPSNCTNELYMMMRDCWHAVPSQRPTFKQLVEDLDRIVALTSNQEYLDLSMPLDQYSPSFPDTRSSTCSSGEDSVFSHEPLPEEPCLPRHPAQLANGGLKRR
Chain of Cyclin-dependent kinase 4 (P11802 whole entry): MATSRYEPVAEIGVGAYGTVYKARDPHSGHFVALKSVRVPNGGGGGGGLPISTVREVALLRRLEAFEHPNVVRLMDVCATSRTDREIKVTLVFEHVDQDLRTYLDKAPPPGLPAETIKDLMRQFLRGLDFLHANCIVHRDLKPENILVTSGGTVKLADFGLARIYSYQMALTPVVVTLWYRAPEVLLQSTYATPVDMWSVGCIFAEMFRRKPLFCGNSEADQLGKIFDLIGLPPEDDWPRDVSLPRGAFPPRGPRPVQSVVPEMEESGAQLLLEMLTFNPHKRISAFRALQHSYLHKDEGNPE
Chain of Platelet-derived growth factor receptor beta (P09619 whole entry): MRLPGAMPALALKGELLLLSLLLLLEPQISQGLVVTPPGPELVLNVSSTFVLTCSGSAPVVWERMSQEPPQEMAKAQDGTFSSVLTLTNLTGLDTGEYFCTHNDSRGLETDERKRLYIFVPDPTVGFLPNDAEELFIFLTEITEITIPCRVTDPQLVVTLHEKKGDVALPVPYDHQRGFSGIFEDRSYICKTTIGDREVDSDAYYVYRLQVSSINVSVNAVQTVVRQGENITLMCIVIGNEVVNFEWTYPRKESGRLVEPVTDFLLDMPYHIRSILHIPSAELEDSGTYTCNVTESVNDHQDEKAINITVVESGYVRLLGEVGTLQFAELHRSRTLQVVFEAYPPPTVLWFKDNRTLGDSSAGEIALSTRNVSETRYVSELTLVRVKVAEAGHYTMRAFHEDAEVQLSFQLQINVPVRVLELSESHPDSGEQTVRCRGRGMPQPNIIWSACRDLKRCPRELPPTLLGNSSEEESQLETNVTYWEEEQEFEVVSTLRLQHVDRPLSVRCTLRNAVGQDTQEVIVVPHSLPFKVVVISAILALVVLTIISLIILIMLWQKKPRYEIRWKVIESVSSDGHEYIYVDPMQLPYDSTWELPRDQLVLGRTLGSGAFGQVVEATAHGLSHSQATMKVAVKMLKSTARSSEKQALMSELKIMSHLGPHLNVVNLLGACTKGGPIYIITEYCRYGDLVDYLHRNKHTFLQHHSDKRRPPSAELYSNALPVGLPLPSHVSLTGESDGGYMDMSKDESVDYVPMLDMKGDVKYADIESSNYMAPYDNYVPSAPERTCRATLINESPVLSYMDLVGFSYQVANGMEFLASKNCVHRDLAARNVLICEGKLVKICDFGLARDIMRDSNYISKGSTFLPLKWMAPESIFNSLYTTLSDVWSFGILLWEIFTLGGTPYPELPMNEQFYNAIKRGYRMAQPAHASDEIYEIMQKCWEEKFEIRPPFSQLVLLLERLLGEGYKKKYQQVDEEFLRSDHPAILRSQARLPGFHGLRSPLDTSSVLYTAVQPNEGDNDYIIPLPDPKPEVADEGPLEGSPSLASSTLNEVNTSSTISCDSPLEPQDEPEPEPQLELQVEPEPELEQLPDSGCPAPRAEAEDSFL
Chain of Proto-oncogene tyrosine-protein kinase Src (P12931 2-536 limits assumed): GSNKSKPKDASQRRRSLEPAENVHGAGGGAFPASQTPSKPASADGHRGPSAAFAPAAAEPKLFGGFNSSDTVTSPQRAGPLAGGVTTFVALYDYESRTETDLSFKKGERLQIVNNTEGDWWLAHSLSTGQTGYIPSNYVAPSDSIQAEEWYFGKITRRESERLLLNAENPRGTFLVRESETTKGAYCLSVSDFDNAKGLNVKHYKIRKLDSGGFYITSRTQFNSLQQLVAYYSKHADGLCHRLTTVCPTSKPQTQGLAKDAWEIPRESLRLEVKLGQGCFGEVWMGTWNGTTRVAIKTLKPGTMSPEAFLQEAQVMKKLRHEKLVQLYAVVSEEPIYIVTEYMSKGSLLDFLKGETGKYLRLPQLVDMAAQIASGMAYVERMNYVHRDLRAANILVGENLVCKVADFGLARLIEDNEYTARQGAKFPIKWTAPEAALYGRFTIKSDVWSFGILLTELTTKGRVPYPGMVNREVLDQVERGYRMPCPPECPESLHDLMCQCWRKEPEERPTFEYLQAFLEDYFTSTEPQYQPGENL
Chain of Mitogen-activated protein kinase 1/3 (P28482 whole entry): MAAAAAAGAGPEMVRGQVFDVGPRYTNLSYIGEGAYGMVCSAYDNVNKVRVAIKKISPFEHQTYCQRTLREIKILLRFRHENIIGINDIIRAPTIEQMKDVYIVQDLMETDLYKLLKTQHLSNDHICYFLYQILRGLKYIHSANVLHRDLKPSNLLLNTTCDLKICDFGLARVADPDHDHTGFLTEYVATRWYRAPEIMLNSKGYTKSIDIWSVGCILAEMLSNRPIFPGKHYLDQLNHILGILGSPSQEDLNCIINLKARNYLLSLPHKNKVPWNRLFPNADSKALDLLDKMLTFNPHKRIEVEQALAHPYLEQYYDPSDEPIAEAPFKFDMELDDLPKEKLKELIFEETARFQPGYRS
Chain of Mitogen-activated protein kinase 1/3 (P27361 whole entry): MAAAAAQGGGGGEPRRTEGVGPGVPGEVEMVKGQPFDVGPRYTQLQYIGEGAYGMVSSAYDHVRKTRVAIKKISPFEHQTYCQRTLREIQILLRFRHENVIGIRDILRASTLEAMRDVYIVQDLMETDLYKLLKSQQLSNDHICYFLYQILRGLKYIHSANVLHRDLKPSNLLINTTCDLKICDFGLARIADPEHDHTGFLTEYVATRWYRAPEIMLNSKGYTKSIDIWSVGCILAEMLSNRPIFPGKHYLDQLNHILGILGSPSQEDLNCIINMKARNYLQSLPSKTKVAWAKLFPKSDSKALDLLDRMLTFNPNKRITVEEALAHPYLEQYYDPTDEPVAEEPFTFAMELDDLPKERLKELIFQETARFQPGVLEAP

| SMILES | IC50 [1] | IC50 [2] | IC50 [3] | IC50 ([4]; pH 7.4, 25 °C) | IC50 [5] | IC50 [4] | IC50 [6] | IC50 [7] |
| --- | --- | --- | --- | --- | --- | --- | --- | --- |
| CC(C)(C)NC(=O)Nc1nc2nc(N)ncc2cc1-c1c(Cl)cccc1Cl | > 50 µM | 7.1 µM | 1.25 µM | 1.25 µM | – | – | – | – |
| CN(C)c1cc(-c2cc3cnc(N)nc3nc2NC(=O)NC(C)(C)C)cc(N(C)C)c1 | – | – | > 50 µM | – | 16 µM | > 50 µM | > 50 µM | – |
| CCN(CC)CCOc1ccc(C)c(-c2cc3cnc(N)nc3nc2NC(=O)NC(C)(C)C)c1C [1-(2-amino-6-{3-[2-(diethylamino)ethoxy]-2,6-dimethylphenyl}pyrido[2,3-d]pyrimidin-7-yl)-3-tert-butylurea] | – | – | 11.8 µM | 11.8 µM | 0.89 µM | – | 1.65 µM | – |
| CC(C)(C)NC(=O)Nc1nc2nc(N)ncc2cc1-c1c(Br)cccc1Br [1-[2-Amino-6-(2,6-dibromo-phenyl)-pyrido-[2,3-d]pyrimidin-7-yl]-3-tert-butyl-urea] | – | – | 1.42 µM | 1.42 µM | 0.29 µM | – | 0.21 µM | – |
| Cc1c(C)c(C)c(-c2cc3cnc(N)nc3nc2NC(=O)NC(C)(C)C)c(C)c1C [1-[2-amino-6-(2,3,4,5,6-pentamethylphenyl)pyrido[2,3-d]pyrimidin-7-yl]-3-tert-butylurea] | – | – | > 50 µM | > 50 µM | 1.62 µM | – | > 50 µM | – |
| Cc1cc(C)c(C)c(-c2cc3cnc(N)nc3nc2NC(=O)NC(C)(C)C)c1C [1-[2-amino-6-(2,3,5,6-tetramethylphenyl)pyrido[2,3-d]pyrimidin-7-yl]-3-tert-butylurea] | > 40 µM | > 50 µM | > 50 µM | > 50 µM | – | – | – | > 50 µM |
| CC(C)(C)NC(=O)Nc1nc2nc(N)ncc2cc1-c1c(Cl)ccc(Cl)c1Cl [1-[2-amino-6-(2,3,6-trichlorophenyl)pyrido[2,3-d]pyrimidin-7-yl]-3-tert-butylurea] | – | – | 2.96 µM | 2.96 µM | 0.11 µM | – | – | – |
| CC(C)(C)NC(=O)Nc1nc2nc(N)ncc2cc1-c1cccc(Cl)c1Cl [1-[2-amino-6-(2,3-dichlorophenyl)pyrido[2,3-d]pyrimidin-7-yl]-3-tert-butylurea] | – | – | 2.26 µM | 2.26 µM | 0.16 µM | – | 4.41 µM | – |
| Cc1cccc(-c2cc3cnc(N)nc3nc2NC(=O)NC(C)(C)C)c1C [1-[2-amino-6-(2,3-dimethylphenyl)pyrido[2,3-d]pyrimidin-7-yl]-3-tert-butylurea] | – | – | 6.05 µM | 6.05 µM | – | – | – | – |
| Cc1cc(C)c(-c2cc3cnc(N)nc3nc2NC(=O)NC(C)(C)C)c(C)c1 [1-[2-amino-6-(2,4,6-trimethylphenyl)pyrido[2,3-d]pyrimidin-7-yl]-3-tert-butylurea] | – | – | 1.47 µM | 1.47 µM | 0.27 µM | – | 0.36 µM | – |
| CC(C)(C)NC(=O)Nc1nc2nc(N)ncc2cc1-c1c(F)cccc1F [1-[2-amino-6-(2,6-difluorophenyl)pyrido[2,3-d]pyrimidin-7-yl]-3-tert-butylurea] | – | – | 1.67 µM | 1.67 µM | 0.11 µM | – | 0.8 µM | – |
| CC(C)(C)NC(=O)Nc1nc2nc(N)ncc2cc1-c1c(Cl)cccc1Br [1-[2-amino-6-(2-bromo-6-chlorophenyl)pyrido[2,3-d]pyrimidin-7-yl]-3-tert-butylurea] | – | – | 0.62 µM | 0.62 µM | – | – | 0.21 µM | – |
| CCOc1cc(OCC)cc(-c2cc3cnc(N)nc3nc2NC(=O)NC(C)(C)C)c1 [1-[2-amino-6-(3,5-diethoxyphenyl)pyrido[2,3-d]pyrimidin-7-yl]-3-tert-butylurea] | – | – | > 50 µM | – | 1.65 µM | > 50 µM | > 50 µM | – |
| CCc1cc(CC)cc(-c2cc3cnc(N)nc3nc2NC(=O)NC(C)(C)C)c1 [1-[2-amino-6-(3,5-diethylphenyl)pyrido[2,3-d]pyrimidin-7-yl]-3-tert-butylurea] | – | – | > 50 µM | > 50 µM | 7.76 µM | – | > 50 µM | – |
| CC(C)(C)NC(=O)Nc1nc2nc(N)ncc2cc1-c1cc(F)cc(F)c1 [1-[2-amino-6-(3,5-difluorophenyl)pyrido[2,3-d]pyrimidin-7-yl]-3-tert-butylurea] | – | – | 8.97 µM | 8.97 µM | 1.1 µM | – | 1.35 µM | – |
| Cc1cc(C)cc(-c2cc3cnc(N)nc3nc2NC(=O)NC(C)(C)C)c1 [1-[2-amino-6-(3,5-dimethylphenyl)pyrido[2,3-d]pyrimidin-7-yl]-3-tert-butylurea] | – | – | 52.9 µM | 52.9 µM | 1.13 µM | – | > 50 µM | – |
| CC(C)(C)NC(=O)Nc1nc2nc(N)ncc2cc1-c1cc(C(F)(F)F)cc(C(F)(F)F)c1 [1-{2-amino-6-[3,5-bis(trifluoromethyl)phenyl]pyrido[2,3-d]pyrimidin-7-yl}-3-tert-butylurea] | – | – | > 50 µM | > 50 µM | > 50 µM | – | > 50 µM | – |

The remaining lines, values ahead:

| IC50 [1] | IC50 [2] | IC50 [3] | IC50 ([4]; pH 7.4, 25 °C) | IC50 [5] | IC50 [4] | IC50 [6] | IC50 [7] | SMILES |
| --- | --- | --- | --- | --- | --- | --- | --- | --- |
| – | – | 4.48 µM | 4.48 µM | 11.2 µM | – | 10.4 µM | – | CCc1ccccc1-c1cc2cnc(N)nc2nc1NC(=O)NC(C)(C)C [1-[2-amino-6-(2-ethylphenyl)pyrido[2,3-d]pyrimidin-7-yl]-3-tert-butylurea] |
| – | – | 4.48 µM | 4.48 µM | – | – | 10.4 µM | – | COc1ccccc1-c1cc2cnc(N)nc2nc1NC(=O)NC(C)(C)C [1-[2-amino-6-(2-methoxyphenyl)pyrido[2,3-d]pyrimidin-7-yl]-3-tert-butylurea] |
| – | – | 1.05 µM | 1.05 µM | – | – | – | – | Cc1ccccc1-c1cc2cnc(N)nc2nc1NC(=O)NC(C)(C)C [1-[2-amino-6-(2-methylphenyl)pyrido[2,3-d]pyrimidin-7-yl]-3-tert-butylurea] |
| – | – | > 50 µM | – | 20.2 µM | > 50 µM | > 50 µM | – | COc1ccc(-c2cc3cnc(N)nc3nc2NC(=O)NC(C)(C)C)cc1OC [1-[2-amino-6-(3,4-dimethoxyphenyl)pyrido[2,3-d]pyrimidin-7-yl]-3-tert-butylurea] |
| – | – | 23 µM | – | 0.67 µM | 23 µM | > 50 µM | – | CCOc1cccc(-c2cc3cnc(N)nc3nc2NC(=O)NC(C)(C)C)c1 [1-[2-amino-6-(3-ethoxyphenyl)pyrido[2,3-d]pyrimidin-7-yl]-3-tert-butylurea] |
| – | – | 22.9 µM | – | 0.36 µM | 22.9 µM | – | – | COc1cccc(-c2cc3cnc(N)nc3nc2NC(=O)NC(C)(C)C)c1 [1-[2-amino-6-(3-methoxyphenyl)pyrido[2,3-d]pyrimidin-7-yl]-3-tert-butylurea] |
| – | – | 2.89 µM | – | 3.97 µM | 2.89 µM | > 50 µM | – | COc1ccc(-c2cc3cnc(N)nc3nc2NC(=O)NC(C)(C)C)cc1 [1-[2-amino-6-(4-methoxyphenyl)pyrido[2,3-d]pyrimidin-7-yl]-3-tert-butylurea] |
| – | – | 6.31 µM | 6.31 µM | 1.67 µM | – | 17.5 µM | – | Cc1ccc(-c2cc3cnc(N)nc3nc2NC(=O)NC(C)(C)C)cc1 [1-[2-amino-6-(4-methylphenyl)pyrido[2,3-d]pyrimidin-7-yl]-3-tert-butylurea] |
| – | – | 13.2 µM | 13.2 µM | 8 µM | – | 19.3 µM | – | CC(C)(C)NC(=O)Nc1nc2nc(N)ncc2cc1-c1ccccc1 [1-{2-amino-6-phenylpyrido[2,3-d]pyrimidin-7-yl}-3-tert-butylurea] |
| > 40 µM | – | – | – | 0.06 µM | – | – | – | COc1cc(OC)cc(-c2cc3cnc(N)nc3nc2NC(=O)NC(C)(C)C)c1 [6-arylpyrido[2,3-d]pyrimidine deriv. 25] |
